Data as given in patent US9901650B2, “Methods for evaluating brain-wide paravascular pathway for waste clearance function and methods for treating neurodegenerative disorders based thereon” (University of Rochester, priority 2013, dated 2018).
“Also recorded” adds a separate entry of the source. Like-named read-outs stand apart in the source and are kept apart here. No end group written: not given here.

Tests used:
[1] = rat, in vivo
Protocol: (§1) Sprague Dawley rats (2-3 month old females) were anesthetized with phenobarbital and lumbar intrathecal catheters placed. Imaging was performed using a custom-built, MRI-compatible PET scanner for the rat brain in combination with a 9.4T microMRI (ref). […] The PET ring (ID 38 mm and accommodating the head of a rat) consists of 12 detector blocks consisting of a 4×8 array of 2.22×2.22×5 mm^3 lutetium oxyorthosilicate (LSO) crystals assembled with a thin reflective foil and coupled to a matching non-magnetic S8550 APD array (ref). PET data are transferred via optical fibers to an external (PCI)-based data acquisition board (ref). For simultaneous PET/MRI imaging a custom-made volume RF coil which fits inside the PET ring was used. The 9.4T microMRI used in all experiments is a superconducting horizontal bore magnet (Bruker Biospin 94/20, 400 MHz, Magnex scientific) interfaced to a Bruker Advance console and controlled by Paravision 5.0 software (Bruker Bio Spin, Billerica, Mass.). The magnet is equipped with an actively shielded combined RT-shim and gradient system (B-GA 12S) that can produce a maximum gradient strength of 200 mT/m. […]

[2] = Dynamic contrast-enhanced MRI after intrathecal infusion of paramagnetic contrast: regional tissue uptake (TACs, mAUC)
Protocol: Female Sprague Dawley rats were used (Taconics, body weight: 220-280 g). For anesthesia, the animals were induced with 3% isofluorane in oxygen using an induction chamber and then received an intra-peritoneal injection of 40 mg/kg […] (Nembutal® Sodium solution, OVATION, Pharmaceuticals, Inc., Deerfield, Ill., USA). The animals were allowed to breathe spontaneously during the entire experiment. Non-invasive monitors (pulse-oximetry, respiratory rate and rectal temperature probe, SA Instruments, Inc., Stony Brook, N.Y.) were placed to assure adequate oxygenation (O2-saturation>97%), ventilation (respiratory rate 50-65 breath per minute) and normal body temperature (36.5° C.-37.5° C.) during the surgical procedures. A 24-gauge catheter was inserted into the tail vein for administration of fluids and supplemental anesthesia. The animal was positioned in a stereotaxic frame (Kopf Instruments, frame #9) and the head flexed to 50 degrees. For the brief surgical procedure, anesthesia was supplemented with isoflurane (0.8-1.2%) delivered in an 1:1 O2:Air mixture.
The atlanto-occipital membrane was exposed via a midline dorsal neck incision and a small incision was made to expose the underlying dura mater. A polyethylene catheter (6-cm long, 0.28 mm ID×0.61 mm OD, (Solomon Scientific, Plymouth Meeting, Pa.)) filled with normal saline was advanced 1-mm into the intrathecal space via a small durotomy made using a 23-gauge needle and was fixed and sealed with super glue. The skin incision was closed around the catheter.
Following surgery, the rats were flipped supine and positioned in a custom-made acrylic cradle fitted with a head fixation device and a snout mask for delivery of supplemental oxygen. The head of the animal was positioned on top of a 3.0 cm custom-made radio-frequency (rf) receiver coil. Non-invasive, MRI compatible monitors (pulse-oximetry, respiratory rate and rectal temperature probe, SA Instruments, Inc., Stony Brook, N.Y.) were repositioned for continuous monitoring of vital signs while the animal underwent MRI imaging. During imaging, body temperature was kept strictly within 36.5-37.5° C. during imaging using a computer assisted air heating system (SA Instruments, Inc., Stony Brook, N.Y.). The intrathecal catheter was connected to a long PE 20 line filled with paramagnetic MR contrast diluted in 0.9% NaCl attached to a 1 cc-syringe and microinfusion pump (Baxter Model AS50 infusion Pump, Baxter Healthcare Corporation, Illinois, USA). The tail vein catheter was used for maintenance hydration (0.9% NaCl, 4 cc/kg/hr) and supplemental anesthesia (Nembutal®, 5-10 mg/kg IV) administered every 2 hrs as guided by the respiratory rate.
All imaging protocols were performed on a 9.4T/20 MRI instrument interfaced to a Bruker Advance console and controlled by Paravision 5.0 software (Bruker Bio Spin, Billerica, Mass.). A custom-made 3-cm surface radio-frequency coil was used as a receiver and a 16-cm diameter volume coil (Bruker) was used as a transmitter. […] For all experiments a 60 mM (1:8 volume ratio diluted in 0.9% NaCl) Gd-DTPA phantom placed in the vicinity of animal's head was used for image intensity normalization over the time series. […] A total of 80 μl of the paramagnetic contrast agent was delivered intrathecally at an infusion rate of 1.6 μl/min (total infusion time: 50 min). After completion of the intrathecal infusion, the 3D MRI acquisitions continued over 3.9 hrs. At the end of the experiment the animal was euthanized with an overdose of Nembutal.
The general MRI image processing procedure consisted of head motion correction, intensity normalization, smoothing and voxel-by-voxel conversion to % of baseline signal. SPM8 (World Wide Web at fil.ion.ucl.ac.uk/spm) was used for this. First, the acquired T1-weighted MRI images were exported as DICOM files and converted to 3D Nlfti image format.

[3] = K-means cluster analysis of contrast-enhanced MRI, 4 mid-sagittal slices
Protocol: Non-parametric segmentation to group voxels in the MRI images on the basis of similar kinetics was performed using a k-means cluster algorithm (PMOD Version 3.307, PMOD Technologies, Ltd, Zurich, Switzerland) on four sagittal slices at the level of the aqueduct from each of the 4D T1-weighted MRIs. A volume-of-interest mask containing the brain only was created for the cluster analysis. The number of clusters (K) used was determined by the K which was able to segment out voxels adjacent to the large vessels such as basilar artery (including pituitary recess) and olfactory artery complex. This was done on an interactive, per animal basis.
All data are presented as mean±SD.

[4] = Dynamic integrated MRI-PET imaging after intrathecal infusion; conditions: lumbar intrathecal infusion
Protocol: as §1

glymphatic system [5] = assay: Brain clearance of 125I-Aβ40 and 14C-inulin after injection into the frontal cortex, pharmacological intervention; assay type: in vivo, mice
Protocol: The role of RAS on clearance of exogenous ^125I-Aβ and ^14C-inulin were determined at 30 minutes after their injection into the frontal cortex (Xie et al., 2013).
Briefly, a stainless steel guide cannula was implanted stereotaxically into the right caudate-putamen or frontal cortex of anesthetized mice (ketamine (100 mg/kg) and xylazine (10 mg/kg). For the frontal cortex, the coordinate of the cannula tip was 0.7 mm anterior and 3.0 mm lateral to the bregma, and 1.3 mm below the surface of the brain. Animals were allowed to recover after surgery. The experiments were performed before substantial chronic process occurred, but allowing time for the BBB repair to large molecules, as reported (Deane et al., 2004). Drugs were pre-injected for 10 minutes before injection of the radio-labeled molecules.
Injection of the mixture of tracers: Mock CSF (0.5 μL) containing ^125I-labeled Aβ40 (10 nM monomer) together with ^14C-inulin (0.05 μCi, an inert molecule for bulk flow) was microinfused into brain ISF over 5 minutes.
At the end of the experiments brain was removed and prepared for radioactivity analysis and TCA analyses.
^125I-radioactivities were determined in a gamma counter (Wallac Vizard Gamma Counter, Perkin Elmer). For ^14C-counting, the samples were solubilized in 0.5 ml tissue solubilizer (Perkin Elmer) overnight, followed by addition of 5 ml of scintillation cocktail (Packard Ultima Gold) and analyzed in a liquid scintillation counter (Beckman Coulter Counter).
All calculations of clearance parameters were carried out as described above or by routine methods (Deane et al., 2004; Xie et al., 2013). Briefly, the percentage of radioactivity remaining in the brain after microinjection was determined as % recovery in brain=100×(Nb/Ni), where Nb is the radioactivity remaining in the brain at the end of the experiment and Ni is the radioactivity injected into the brain ISF, i.e., the d.p.m. for ^14C-inulin and the c.p.m. for the TCA-precipitable ^125I-radioactivity. Inulin was used as a metabolically inert polar molecule which is neither transported across the BBB nor retained by the brain; its clearance rate provides a measure of the ISF convective bulk flow. For each group there were 3-6 mice, and data expressed as mean±SEM. P<0.5 was taken as statistically significant as determined using T-test.

glymphatic system [6] = assay: Brain influx of 125I-Aβ40 and 14C-inulin after injection into the cisterna magna, pharmacological intervention; assay type: in vivo, mice
Protocol: The role of RAS on the influx of these molecules into brain was determined by injecting these molecules into the subarachnoid space (cisterna magna) and determining brain levels after 30 minutes.
A small volume (5 μL) of mock CSF containing ^125I-Aβ40 (10 nM) and ^14C-inulin (0.05 μCi) was microinjected into the cistern magna at 1 μL/min. At the end of the experiment (30 minutes) the brain was removed and analyzed for radioactivity.

AQP4-M1 expression = AQP4-M1 expression by qPCR in cultured primary cortical astrocytes; assay type: cell-based, mouse; conditions: vs. control; siRNA transfected for six days
Text: (A) The Aqp4 gene has two transcription initiation site, with transcription initiated at each site resulting in two AQP4 mRNA variants: AQP4-M1 which includes Exons 0-4 of the Aqp4 gene and AQP4-M23 which lacks Exon 0. (B) AQP4-M23 (the predominant form in the CNS under physiological conditions) permits perivascular AQP4 packing while AQP4-M1 prevents it; thus increasing AQP4-M1 expression impairs AQP4 polarization (Crane et el. J Biol Chem 2009; Furman et al. Proc Nat Acad Sci 2003). (C) The expression of AQP4-M1 was evaluated by real-time quantitative PCR (qPCR) in the mouse ipsilateral cortex 3 days after TBI using PCR primers specifically targeting Exon 0 of the AQP4-M1 transcript. Compared to AQP4-M1 expression in the control (sham) cortex, TBI increased AQP4-M1 expression by approximately two-fold (*P<0.05, t-test; n=5 per group). (D) Using an siRNA-based approach targeting Exon 0 of the AQP4-M1 variant, the expression of AQP4-M1 could be efficiently knocked down in cultured primary mouse cortical astrocytes. Three siRNA duplexes were designed to target Exon 0 of the AQP4-M1 transcript, and primary mouse astrocytes were transfected with these siRNA duplexes for six days. […] Thus, we tested whether inhibition of STAT3 signaling in primary mouse cortical astrocytes could reduce AQP4-M1 expression. […]

[7] = Intracisternal radio-tracer injection: accumulation in the brain parenchyma
Protocol: Anesthetized mice were fixed in a stereotaxic frame and a 30GA needle was inserted into the cisterna magna. For intracisternal injections, 10 μl of CSF tracer was injected at a rate of 2 μl/min over 5 minutes with a syringe pump (Harvard Apparatus).
After 15, 30 or 45 minutes, animals were rapidly decapitated, the skull opened, the dura removed and the brain harvested. The brain was solubilized in 2 ml Soluene (Sigma) at 45° C. overnight. 10 ml Hionic Fluor liquid scintillation cocktail (Perkin Elmer) was added and radioactivity was measured in a Multipurpose Scintillation Counter (Beckman Coulter). Brain radioactivity was normalized to total radioactivity detected in a 10 μl aliquot put directly into a scintillation vial immediately before intracisternal radio-tracer injection and expressed as the % of total injected radioactivity. ^3H-mannitol and ^3H-dextran accumulation in the brain was compared by 2-way ANOVA with Bonferroni's post-hoc test.

[8] = Intra-striate radio-tracer injection: interstitial solute clearance from the brain, wild type vs Aqp4-null
Protocol: To evaluate the pathways and rates of interstitial fluid and solute clearance from the brain, fluorescent and radio-labeled tracers were injected stereotactically into the brain parenchyma. Anesthetized animals were fixed in a stereotaxic frame and a 33GA needle was inserted via a small burr hole into the brain at the following coordinates: intra-cortical injections (0.22 mm caudal, 2.0 mm lateral, 1.75 mm ventral to bregma), intra-striate injections (0.22 mm caudal, 2.5 mm lateral, 3.5 mm ventral to bregma), intrathalamic injections (1.82 mm caudal, 1.25 mm lateral, 3.75 mm ventral to bregma). After needle insertion, 30 minutes was allowed to elapse to allow the needle track to swell closed. 1.0 μl of tracer (dissolved in artificial CSF) was injected at a rate of 17 nl/min.
15 min, 30 min, 1 h or 2h later, the animal was rapidly decapitated and the brain harvested. The brain was solubilized as above, and the radioactivity present in the brain was measured by liquid scintillation spectrometry. All radioactivity values were normalized to 1 μl injection standards taken immediately prior to each intra-parenchymal injection.

[9] = ratio of average mAUC of region to average mAUC of pituitary recess, mean ± SD
[10] = agent 1 μM, 30 minutes, frontal cortex

2-deoxy-2-(^18F)fluoro-D-glucose [^18FDG]
transport through the brain-wide glymphatic pathway [1]: moves rapidly through the brain-wide glymphatic pathway

CNC[C@H](O)[C@@H](O)[C@H](O)[C@H](O)CO.CNC[C@H](O)[C@@H](O)[C@H](O)[C@H](O)CO.O=C([O-])CN(CCN(CC(=O)[O-])CC(=O)O)CCN(CC(=O)[O-])CC(=O)O.[Gd+3] [Gd-DTPA, 1-deoxy-1(methylamino)D-glucitol dihydrogen [N,N-bis[2-[bis(carboxymethyl)amino]ethyl]glycinato (5-)]gadolinite(2-)(2:1)]
mAUC at the pituitary recess ([2]; not normalized, mean ± SD): 743±266 % signal change per time interval | time at which average uptake in the cerebellum peaked / reached apparent plateau ([2]; post-injection): ~90 min | time of peak of signal changes induced within the parenchyma ([2]; post-injection): 60 to 80 min | mAUC, Aqueduct [2, 9]: 0.34 ± 0.23 | mAUC, Cerebellum [2, 9]: 0.28 ± 0.11 | mAUC, Olfactory Bulb [2, 9]: 0.24 ± 0.11 | mAUC, Pontine Nucleus [2, 9]: 0.17 ± 0.09 | mAUC, Pineal recess ([2]; ratio of average mAUC of region to average mAUC of pituitary recess, mean ± SD, intrathecal infusion): 1.01 ± 0.35 | #Voxels - Zone 3, mean (SD) ([3]; most distally labeled voxels): 18295 (7407) | #Voxels - Zone 1, mean (SD) ([3]; para-vascular zone): 4048 (2146) | Zone 2#Voxels*AUC/Zone 1#Voxels*AUC, mean (SD) ([3]; rat, in vivo): 1.62 (0.60) | time-to-peak of the para-vascular red cluster ([3]; rat, in vivo): ~90 min | #Voxels - Zone 2, mean (SD) ([3]; tissue adjacent to zone 1): 15835 (5690) | transport through the brain-wide glymphatic pathway [4]: with some ‘restriction’

CC(=N)NCCCC[C@H](N)C(=O)O [L-NIL]
clearance of Aβ (glymphatic system [5]; 1 mM): increased | clearance of inulin (glymphatic system [5]; 1 mM): increased | influx of Aβ with dose (glymphatic system [6]; mouse, in vivo): dose dependent increase | influx of inulin with dose (glymphatic system [6]; mouse, in vivo): dose dependent increase

O=[N+]([O-])c1ccc2c(c1)S(=O)(=O)C=C2 [STATTIC]
AQP4-M1 expression (AQP4-M1 expression): significantly reduced

OC[C@@H](O)[C@@H](O)[C@H](O)[C@H](O)CO [[^3H]mannitol]
approximate maximal influx, plateau of one-phase association fit ([7]; % of total injected radioactivity, R2=0.3597): 39.96±5.55% | proportion of injected tracer detectable in the brain ([7]; within 45 min of intracisternal injection): ~40% | reduction of clearance from the brain interstitium in Aqp4-null mice compared to wild type ([8]; intra-striate injection): ~70%

NC(=O)CC[C@@H]1NC(=O)[C@H](Cc2ccccc2)NC(=O)[C@H](Cc2ccc(O)cc2)NC(=O)[C@@H](N)CSSC[C@@H](C(=O)N2CCC[C@H]2C(=O)N[C@@H](CCCN=C(N)N)C(=O)NCC(N)=O)NC(=O)[C@H](CC(N)=O)NC1=O [vasopressin]
brain clearance of Aβ (glymphatic system [5]; [10]): reduced | brain clearance of inulin (glymphatic system [5]; [10]): reduced

^125I-amyloid β1-40: radio-labeled amyloid β1-40 peptide tracer
accumulation in the brain after intracisternal injection, in words ([7]; mouse, in vivo): increased in a manner comparable to [^3H]dextran-10 | rate of clearance from the brain in wild-type mice, in words ([8]; mouse, in vivo): exceeded that of either [^3H]mannitol or [^3H]dextran-10 | reduction of clearance from the brain interstitium in Aqp4-null mice compared to wild type ([8]; mouse, in vivo): ~55%

angiotensin (1-7): active angiotensin metabolite acting on the Mas receptor; opposes angiotensin II (DRVYIHP; Angiotensin 1-7; UniProt P01019 25-31, looked up)
clearance of Aβ at 15 minutes (glymphatic system [5]; 1 nM and 10 nM, 15 minute time point): increased; also recorded: greater change between concentrations 10 nM and 1 nM | clearance of Aβ with dose (glymphatic system [5]; 1 μM, 0.1 μM and 0.01 μM, pre-injected into frontal cortex, 30 minutes): increased progressively with dose

angiotensin II: peptide of the renin-angiotensin system acting on AT1R and AT2R
brain clearance of Aβ (glymphatic system [5]; [10]): reduced | brain clearance of inulin (glymphatic system [5]; [10]): reduced | levels of Aβ40 remaining in brain (recovery) (glymphatic system [5]; [10]): increase | levels of inulin remaining in brain (recovery) (glymphatic system [5]; [10]): increase | influx of Aβ40 into brain (glymphatic system [6]; agent 1 μM injected into the cistern magna, 30 minutes): decrease | influx of inulin into brain (glymphatic system [6]; angiotensin II 1 μM, losartan route not given, 30 minutes): decrease

atrial natriuretic peptide (ANP): a peptide that reduces body water and sodium (SLRRSSCFGGRMDRIGAQSGLGCNSFRY; ends and bridges not checked; cysteine pairing not given here; UniProt P01160 124-151, looked up)
brain clearance of Aβ (glymphatic system [5]; [10]): reduced | brain clearance of inulin (glymphatic system [5]; [10]): reduced
